Data from US20240391940A1, “FUSED RING-CONTAINING COMPOUND, APPLICATION THEREOF, AND COMPOSITION CONTAINING SAME” (GenEros Biopharma Ltd., priority 2020, published 2024).
Values joined by “and” are separate entries in the source; they are usually repeats but may differ in a detail not shown here. Equal entries are not always repeated. Where two headings read alike, the source gives them in different places.

Tests used:
[1] = test system: collagen-induced arthritis (CIA) mouse model; assay: Mouse CIA model, repeated for dose exploration (10, 30, 50 mg/kg); conditions: for Significance of clinical score vs. Vehicle group (Two-way ANOVA): Tofacitinib BID; for Changes in body weight, Mean ± SEM / Clinical scores, Mean ± SEM / Clinical scores: significance vs. solvent control group, two-way ANOVA: G2 Tofacitinib 10 mg/kg
Excerpt: Testing was repeated for dose exploration
The above method was used.

[2] = test system: adjuvant arthritis (AIA) rat model; assay: Rat AIA (adjuvant arthritis) model; assay type: in vivo, Lewis rats; conditions: AIA rats, 10 mg/kg daily from day 9, individual animals, 10 mg/kg; for Hind paw volume: in mL (unit assumed)
[3] = test system: collagen-induced arthritis (CIA) mouse model; conditions: CIA mice; for clinical score: Tofacitinib 10 mg/kg p.o. BID from day 28; for clinical score / body weight: Mean ± SEM; for body weight: Tofacitinib 10 mg/kg

C[C@@H]1CCN(C(=O)CC#N)C[C@@H]1N(C)c1ncnc2[nH]ccc12 [Tofacitinib, reference compound]
Significance of clinical score vs. Vehicle group (Two-way ANOVA) ([1]; CIA mice, Day 35): ** (**P < 0.01)
Significance of clinical score vs. Vehicle group (Two-way ANOVA) ([1]; CIA mice, Day 38): *** (***P < 0.001)
Significance of clinical score vs. Vehicle group (Two-way ANOVA) ([1]; CIA mice, Day 40): **** (****P < 0.0001)
Significance of clinical score vs. Vehicle group (Two-way ANOVA) ([1]; CIA mice, Day 42): **** (****P < 0.0001)
Effect on symptoms of arthritis and lesions in tissues ([1]; CIA mice, positive control tofacitinib): significant improving effect on the symptoms of arthritis and lesions in tissues
Changes in body weight, Mean ± SEM ([1]; Day 21): 20.41 ± 0.27
Clinical scores, Mean ± SEM ([1]; Day 21): 0.0 ± 0.00
Changes in body weight, Mean ± SEM ([1]; Day 24): 19.69 ± 0.37
Clinical scores, Mean ± SEM ([1]; Day 24): 0.0 ± 0.00
Changes in body weight, Mean ± SEM ([1]; Day 26): 19.59 ± 0.36
Clinical scores, Mean ± SEM ([1]; Day 26): 0.3 ± 0.16
Changes in body weight, Mean ± SEM ([1]; Day 28): 19.25 ± 0.50
Clinical scores, Mean ± SEM ([1]; Day 28): 0.6 ± 0.18
Changes in body weight, Mean ± SEM ([1]; Day 31): 18.98 ± 0.53
Clinical scores, Mean ± SEM ([1]; Day 31): 1.8 ± 0.37
Changes in body weight, Mean ± SEM ([1]; Day 33): 19.14 ± 0.43
Clinical scores, Mean ± SEM ([1]; Day 33): 3.1 ± 0.52
Changes in body weight, Mean ± SEM ([1]; Day 35): 19.03 ± 0.46
Clinical scores, Mean ± SEM ([1]; Day 35): 3.6 ± 0.56
Clinical scores: significance vs. solvent control group, two-way ANOVA ([1]; Day 35): ** (** p < 0.01)
Changes in body weight, Mean ± SEM ([1]; Day 38): 18.98 ± 0.45
Clinical scores, Mean ± SEM ([1]; Day 38): 4.6 ± 0.75
Clinical scores: significance vs. solvent control group, two-way ANOVA ([1]; Day 38): *** (*** p < 0.001)
Changes in body weight, Mean ± SEM ([1]; Day 40): 19.56 ± 0.32
Clinical scores, Mean ± SEM ([1]; Day 40): 5.1 ± 0.90
Clinical scores: significance vs. solvent control group, two-way ANOVA ([1]; Day 40): **** (**** p <0.0001)
Changes in body weight, Mean ± SEM ([1]; Day 42): 19.69 ± 0.40
Clinical scores, Mean ± SEM ([1]; Day 42): 5.5 ± 0.87
Clinical scores: significance vs. solvent control group, two-way ANOVA ([1]; Day 42): **** (**** p <0.0001)
body weight ([2]; day 9): 167 g (2×) and 156 g and 146 g and 168 g and 151 g and 154 g and 161 g
clinical scores ([2]; day 9): 1 and 0 (7×)
Hind paw volume ([2]; day 9): 2.1 and 1.42 and 1.4 and 1.35 and 1.24 and 1.1
body weight ([2]; day 10): 165 g and 153 g and 142 g and 168 g and 150 g and 152 g and 160 g and 166 g
body weight ([2]; day 11): 162 g and 154 g and 140 g and 166 g and 145 g and 151 g and 158 g and 167 g
clinical scores ([2]; day 11): 1.5 and 0.5 (4×) and 0 (2×) and 0.25
Hind paw volume ([2]; day 11): 2 and 1.23 and 1.03 and 1.53 and 1.02 and 1.46 and 1.01
body weight ([2]; day 12): 155 g (2×) and 149 g (2×) and 136 g and 159 g and 145 g and 168 g
body weight ([2]; day 13): 154 g (2×) and 148 g and 136 g and 157 g and 140 g and 167 g and 150 g
clinical scores ([2]; day 13): 3.3 and 1 (3×) and 1.5 and 0.5 and 1.2 and 0.7
Hind paw volume ([2]; day 13): 2.59 and 1.92 and 1.72 and 1.16 and 1.39 and 1.11 and 1.83 and 1.47
body weight ([2]; day 14): 151 g and 144 g and 135 g and 154 g and 140 g and 147 g and 153 g and 164 g
body weight ([2]; day 15): 150 g and 145 g and 134 g and 152 g and 139 g and 146 g and 151 g and 162 g
clinical scores ([2]; day 15): 3.5 and 3 and 2 (2×) and 1.5 and 2.5 and 0.8 and 0.7
Hind paw volume ([2]; day 15): 2.54 and 2.22 and 1.31 and 1.33 and 1.65 and 2.45 and 1.18
body weight ([2]; day 16): 153 g and 142 g and 136 g and 152 g and 141 g and 145 g and 147 g and 160 g
body weight ([2]; day 17): 156 g and 147 g and 138 g and 151 g and 142 g and 146 g (2×) and 163 g
clinical scores ([2]; day 17): 3 and 2 (2×) and 1.8 and 1.5 and 2.3 and 1.3 and 0.3
Hind paw volume ([2]; day 17): 2.5 and 2.45 and 2.08 and 1.17 and 2.21 and 1.73 and 2.16 and 0.94
body weight ([2]; day 18): 155 g and 148 g (3×) and 141 g and 151 g and 143 g and 164 g
body weight ([2]; day 19): 160 g and 151 g and 144 g and 159 g and 145 g and 153 g and 154 g and 166 g
clinical scores ([2]; day 19): 2.8 and 2 and 1.3 (2×) and 0.3 and 1.5 and 1 and 0
Hind paw volume ([2]; day 19): 2.81 and 2.85 and 1.96 and 1.46 and 2.31 and 1.83 and 1.42
body weight ([2]; day 20): 159 g and 150 g and 136 g and 160 g and 145 g and 152 g and 153 g and 165 g
body weight ([2]; day 21): 161 g and 150 g and 148 g and 162 g
clinical scores ([2]; day 21): 2 and 1.5 (2×) and 1.3 (2×) and 0 (2×) and 1
Hind paw volume ([2]; day 21): 2.49 and 2.2 and 2.17 and 1.18 and 1.96 and 1.22
clinical scores ([2]; day 23): 3 and 1 (4×) and 6 and 0.5 and 0
Hind paw volume ([2]; day 23): 2.74 and 1.9 and 1.91 and 1.23 and 1.17 and 1.64 and 1.92 and 1.18
clinical score ([3]; day 21): 0.0 ± 0.00
clinical score ([3]; day 25): 0.3 ± 0.16
clinical score ([3]; day 28): 0.8 ± 0.31
clinical score ([3]; day 29): 1.0 ± 0.42
clinical score ([3]; day 32): 1.8 ± 0.49
clinical score ([3]; day 34): 2.5 ± 0.65
clinical score ([3]; day 36): 2.8 ± 0.75
clinical score ([3]; day 39): 3.4 ± 0.80
clinical score ([3]; day 41): 3.5 ± 0.87
body weight ([3]; day 21): 20.39 ± 0.43
body weight ([3]; day 25): 20.54 ± 0.45
body weight ([3]; day 28): 20.63 ± 0.49
body weight ([3]; day 29): 20.2 ± 0.44
body weight ([3]; day 32): 19.91 ± 0.50
body weight ([3]; day 34): 20.39 ± 0.44
body weight ([3]; day 36): 20.26 ± 0.43
body weight ([3]; day 39): 20.31 ± 0.34
body weight ([3]; day 41): 21.04 ± 0.44
Effect on symptoms of arthritis and lesions in tissues ([3]; positive control tofacitinib): significant improving effect on the symptoms of arthritis and lesions in tissues
Joint histopathology (H&E staining) ([3]; tofacitinib 10 mg/kg): no significant lesions in joint tissues
Day on which significant inhibition of the score of arthritis began ([3]; tofacitinib 10 mg/kg BID): 34 days
